How the values were obtained:
[1] = tested on: B.1.617.2 (delta variant); format: cell-based, SARS-CoV-2; conditions: healthy control subjects n=4, m.o.i. 0.1, 48 hrs; 10 mg/ml POPG, 4 mg/ml PI, prophylactic
[2] = tested on: SARS-CoV-2 variant, B.1.351; format: cell-based
[3] = tested on: B1.1.529 (omicron variant); format: cell-based, SARS-CoV-2; conditions: healthy control subjects n=4, m.o.i. 0.1, 48 Hr; 10 mg/ml POPG, 4 mg/ml PI, prophylactic

Molecule | B.1.617.2 (delta variant) replication [1] | attenuation of B.1.351 replication [2] | B.1.1.529 (Omicron variant) replication [3]
CCCCCCCC/C=C\CCCCCCCC(=O)O[C@H](COC(=O)CCCCCCCCCCCCCCC)COP(=O)(O)OCC(O)CO (stereo partly drawn) [POPG, palmitoyl-oleoyl-phosphatidylglycerol] | inhibited | 50% | inhibited
phosphatidylinositol [PI] | inhibited | 70% | inhibited

— US20260183321A1, “TREATMENT OF CORONAVIRUS INFECTIONS WITH ANTIMICROBIAL PHOSPHOLIPID COMPOSITIONS” (NATIONAL JEWISH HEALTH, priority 2022, published 2026)
